From US12473296B2, “Perk inhibiting compounds” (HiberCell, Inc., priority 2019, dated 2025)
pIC50: −log10 of the molar value.

Experiments:
[1] = molecular target: EIF2AK3 (PERK) catalytic domain (amino acids 536-1116) (Homo sapiens (Human), UniProt Q9NZJ5); assay: PERK in vitro activity assay (isolated), TR-FRET kinase assay; conditions: isolated PERK enzyme, 1.5 μM ATP, GFP-eIF2a substrate; read-out: Biochemical IC50
How it was run: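 Human PERK catalytic domain (aa 536-1116) with 100-200 nM GFP-eIF2a in 50 mM HEPES pH 7.5, 10 mM MgCl2, 1.0 mM EGTA, 0.01% Brij-35; enzyme-started reaction run 45 min at room temperature. Stopped with 10 mM EDTA, 2 nM Tb-anti-phospho-eIF2a added for 90 min; IC50 from TR-FRET ratio by 4-parameter logistic fit.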

[2] = molecular target: PERK (Homo sapiens (Human), UniProt Q9NZJ5); assay: PERK cellular assay (TR-FRET, HEK293-EGFP-eIF2α cells, tunicamycin-induced ER stress); type: cell-based; conditions: tunicamycin 2 hours, read-out: Cellular IC50 (μM) (EIF2a)
Chain of PERK (Q9NZJ5 30-1116): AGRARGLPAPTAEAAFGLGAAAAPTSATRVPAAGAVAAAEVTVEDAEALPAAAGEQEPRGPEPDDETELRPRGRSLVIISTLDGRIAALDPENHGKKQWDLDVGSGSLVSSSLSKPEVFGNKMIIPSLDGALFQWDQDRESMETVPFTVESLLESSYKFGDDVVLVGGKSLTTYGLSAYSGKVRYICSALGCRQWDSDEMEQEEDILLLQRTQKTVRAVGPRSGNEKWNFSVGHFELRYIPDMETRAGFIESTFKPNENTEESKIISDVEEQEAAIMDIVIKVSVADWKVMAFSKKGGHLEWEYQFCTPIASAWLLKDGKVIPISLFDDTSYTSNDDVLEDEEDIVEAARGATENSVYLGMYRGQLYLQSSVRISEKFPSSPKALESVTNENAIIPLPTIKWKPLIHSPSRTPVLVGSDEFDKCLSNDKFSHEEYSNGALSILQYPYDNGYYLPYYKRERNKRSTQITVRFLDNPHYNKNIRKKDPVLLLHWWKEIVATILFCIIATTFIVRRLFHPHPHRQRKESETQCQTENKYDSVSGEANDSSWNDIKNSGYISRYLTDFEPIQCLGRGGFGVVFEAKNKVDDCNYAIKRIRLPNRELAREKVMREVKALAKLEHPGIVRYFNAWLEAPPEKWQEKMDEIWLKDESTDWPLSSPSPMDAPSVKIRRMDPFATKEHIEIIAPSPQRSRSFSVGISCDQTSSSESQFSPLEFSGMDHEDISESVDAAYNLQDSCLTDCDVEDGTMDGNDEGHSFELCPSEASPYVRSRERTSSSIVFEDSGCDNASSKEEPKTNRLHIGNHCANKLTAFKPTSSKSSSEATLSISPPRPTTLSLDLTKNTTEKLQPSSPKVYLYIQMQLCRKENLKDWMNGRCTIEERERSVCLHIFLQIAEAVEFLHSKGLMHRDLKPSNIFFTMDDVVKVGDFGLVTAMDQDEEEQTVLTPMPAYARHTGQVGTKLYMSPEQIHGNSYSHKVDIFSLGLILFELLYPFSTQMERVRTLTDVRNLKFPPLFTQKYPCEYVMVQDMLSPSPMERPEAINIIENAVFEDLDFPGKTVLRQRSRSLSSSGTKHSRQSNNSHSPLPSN
How it was run: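 After 2 h tunicamycin ([…]) stress following 30 min compound pretreatment at 37 °C, lysed HEK293-EGFP-eIF2α cells were read by TR-FRET. IC50 derived by 4-parameter logistic fitting of percent inhibition, DMSO-normalized, from 10-point 3-fold dilutions.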

Chain of EIF2AK3 (PERK) catalytic domain (amino acids 536-1116) (Q9NZJ5 536-1116): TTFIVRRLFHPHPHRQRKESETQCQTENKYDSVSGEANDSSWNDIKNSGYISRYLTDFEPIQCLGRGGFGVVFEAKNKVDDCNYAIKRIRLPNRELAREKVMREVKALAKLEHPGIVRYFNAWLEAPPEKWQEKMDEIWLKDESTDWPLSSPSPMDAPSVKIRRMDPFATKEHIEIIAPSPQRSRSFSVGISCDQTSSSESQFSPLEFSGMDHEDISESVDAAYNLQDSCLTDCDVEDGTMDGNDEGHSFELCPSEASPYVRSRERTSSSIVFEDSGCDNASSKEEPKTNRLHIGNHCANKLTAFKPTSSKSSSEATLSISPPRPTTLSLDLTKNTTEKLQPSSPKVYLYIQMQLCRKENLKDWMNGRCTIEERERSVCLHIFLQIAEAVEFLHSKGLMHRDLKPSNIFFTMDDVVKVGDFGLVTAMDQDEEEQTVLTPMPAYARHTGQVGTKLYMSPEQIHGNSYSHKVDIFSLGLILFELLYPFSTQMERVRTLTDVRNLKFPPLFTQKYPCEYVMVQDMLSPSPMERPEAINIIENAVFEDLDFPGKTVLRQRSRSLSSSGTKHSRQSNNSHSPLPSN

Row | SMILES | pIC50 [1] | IC50 [2]
1 | Cc1cc(NC(=O)C(O)c2cc(F)cc(F)c2)ccc1-c1cnc(N)c(C(=O)NC2COC2)c1 (stereo not drawn) [Example 25, 2-amino-5-(4-(2-(3,5-difluorophenyl)-2-hydroxyacetamido)-2-methylphenyl)-N-(oxetan-3-yl)nicotinamide] | 7.30 to 7.59 | 0.501 to 1 µM
2 | Cc1cc(NC(=O)C(O)c2cc(F)cc(F)c2)ccc1-c1cnc(N)c(C(=O)NC2CC(O)C2)c1 (stereo not drawn) [Example 26, 2-amino-5-(4-(2-(3,5-difluorophenyl)-2-hydroxyacetamido)-2-methylphenyl)-N-(3-hydroxycyclobutyl) nicotinamide] | 7.60 to 9.00 | 0.101 to 0.25 µM
3 | Cc1cc(NC(=O)C(O)c2cc(F)cc(F)c2)ccc1-c1cnc(N)c(C(=O)NC2CC(O)C2)c1 (stereo not drawn) [Example 27, 2-amino-5-(4-(2-(3,5-difluorophenyl)-2-hydroxyacetamido)-2-methylphenyl)-N-(3-hydroxycyclobutyl) nicotinamide] | 7.00 to 7.29 | 1 to 2 µM
4 | CC(=O)N1CC(NC(=O)c2cc(-c3ccc(NC(=O)C(O)c4cc(F)cc(F)c4)cc3C)cnc2N)C1 (stereo not drawn) [Example 30, N-(1-acetylazetidin-3-yl)-2-amino-5-(4-(2-(3,5-difluorophenyl)-2-hydroxyacetamido)-2-methylphenyl) nicotinamide] | 7.60 to 9.00 | 0.501 to 1 µM
5 | CC(C)NC(=O)c1cc(-c2ccc(NC(=O)C(O)c3cc(F)cc(F)c3)cc2F)cnc1N (stereo not drawn) [Example 33, 2-amino-5-(4-(2-(3,5-difluorophenyl)-2-hydroxyacetamido)-2-fluorophenyl)-N-isopropylnicotinamide] | 6.60 to 7.00 | 0.251 to 0.5 µM
6 | CC(C)NC(=O)c1cc(-c2ccc(NC(=O)C(O)c3cc(F)cc(F)c3)cc2C(F)(F)F)cnc1N (stereo not drawn) [Example 36, 2-amino-5-(4-(2-(3,5-difluorophenyl)-2-hydroxyacetamido)-2-(trifluoromethyl)phenyl)-N-isopropylnicotinamide] | 7.60 to 9.00 | 0.051 to 0.1 µM
7 | Cc1cc(NC(=O)C(O)c2cc(F)cc(F)c2)ccc1-c1cnc(N)c(C(=O)NC(C)C)c1 (stereo not drawn) [Example 40, 2-amino-5-(4-(2-(3,5-difluorophenyl)-2-hydroxyacetamido)-2-methylphenyl)-N-isopropylnicotinamide] | 7.60 to 9.00 | 0.026 to 0.05 µM
8 | Cc1cc(NC(=O)C(O)c2cc(F)cc(F)c2)ccc1-c1cnc(N)c(C(=O)O)c1 (stereo not drawn) [Example 41, 2-amino-5-(4-(2-(3,5-difluorophenyl)-2-hydroxyacetamido)-2-methylphenyl) nicotinic acid] | 6.60 to 7.00 | > 5 µM
9 | Cc1cc(NC(=O)C(O)c2cc(F)cc(F)c2)ccc1-c1cnc(N)c(C(=O)NC2CNC2)c1 (stereo not drawn) [Example 45, 2-amino-N-(azetidin-3-yl)-5-(4-(2-(3,5-difluorophenyl)-2-hydroxyacetamido)-2-methylphenyl) nicotinamide] | 7.00 to 7.29 | > 5 µM
10 | Cc1cc(NC(=O)C(O)c2cc(F)cc(F)c2)ccc1-c1cnc(N)c(C(=O)NCCO)c1 (stereo not drawn) [Example 56, 2-amino-5-(4-(2-(3,5-difluorophenyl)-2-hydroxyacetamido)-2-methylphenyl)-N-(2-hydroxyethyl) nicotinamide] | 7.60 to 9.00 | 0.251 to 0.5 µM
11 | Cc1cccc(C(O)C(=O)Nc2ccc(-c3cnc(N)c(C(=O)NC(C)C)c3)c(C)c2)c1 (stereo not drawn) [Example 67, 2-amino-5-(4-(2-hydroxy-2-(m-tolyl)acetamido)-2-methylphenyl)-N-isopropylnicotinamide] | 7.60 to 9.00 | 0.051 to 0.1 µM
12 | Cc1cc(NC(=O)C(O)c2cccc(Cl)c2)ccc1-c1cnc(N)c(C(=O)NC(C)C)c1 (stereo not drawn) [Example 69, 2-amino-5-(4-(2-(3-chlorophenyl)-2-hydroxyacetamido)-2-methylphenyl)-N-isopropylnicotinamide] | 7.60 to 9.00 | 0.026 to 0.05 µM
13 | Cc1cc(NC(=O)C(O)c2cccc3c2OCC3)ccc1-c1cnc(N)c(C(=O)NC(C)C)c1 (stereo not drawn) [Example 75, 2-amino-5-(4-(2-(2,3-dihydrobenzofuran-7-yl)-2-hydroxyacetamido)-2-methylphenyl)-N-isopropylnicotinamide] | 6.60 to 7.00 | 1 to 2 µM
14 | Cc1cc(NC(=O)C(O)c2cccc3cnn(C)c23)ccc1-c1cnc(N)c(C(=O)NC(C)C)c1 (stereo not drawn) [Example 77, 2-amino-5-(4-(2-hydroxy-2-(1-methyl-1H-indazol-7-yl)acetamido)-2-methylphenyl)-N-isopropylnicotinamide] | 6.00 to 6.30 | 3 to 4 µM
15 | Cc1nc(C(O)C(=O)Nc2ccc(-c3cnc(N)c(C(=O)NC(C)C)c3)c(C)c2)cs1 (stereo not drawn) [Example 79, 2-amino-5-(4-(2-hydroxy-2-(2-methylthiazol-4-yl)acetamido)-2-methylphenyl)-N-isopropylnicotinamide] | 5.70 to 6.00 | > 5 µM

Continued, values first:

Row | pIC50 [1] | IC50 [2] | SMILES
16 | 7.60 to 9.00 | 0.051 to 0.1 µM | Cc1cc(NC(=O)C(O)c2cc(F)cc(F)c2)ccc1-c1cnc(N)c(C(=O)NC2COC2)c1 (stereo not drawn) [Example 24, 2-amino-5-(4-(2-(3,5-difluorophenyl)-2-hydroxyacetamido)-2-methylphenyl)-N-(oxetan-3-yl)nicotinamide]
17 | 7.60 to 9.00 | 0.026 to 0.05 µM | COC1CC(NC(=O)c2cc(-c3ccc(NC(=O)C(O)c4cc(F)cc(F)c4)cc3C)cnc2N)C1 (stereo not drawn) [Example 28, 2-amino-5-(4-(2-(3,5-difluorophenyl)-2-hydroxyacetamido)-2-methylphenyl)-N-(3-methoxycyclobutyl) nicotinamide]
18 | 7.30 to 7.59 | 0.251 to 0.5 µM | COC1CC(NC(=O)c2cc(-c3ccc(NC(=O)C(O)c4cc(F)cc(F)c4)cc3C)cnc2N)C1 (stereo not drawn) [Example 29, 2-amino-5-(4-(2-(3,5-difluorophenyl)-2-hydroxyacetamido)-2-methylphenyl)-N-(3-methoxycyclobutyl) nicotinamide]
19 | 7.00 to 7.29 | 3 to 4 µM | CC(=O)N1CC(NC(=O)c2cc(-c3ccc(NC(=O)C(O)c4cc(F)cc(F)c4)cc3C)cnc2N)C1 (stereo not drawn) [Example 31, N-(1-acetylazetidin-3-yl)-2-amino-5-(4-(2-(3,5-difluorophenyl)-2-hydroxyacetamido)-2-methylphenyl) nicotinamide]
20 | 7.60 to 9.00 | 0.051 to 0.1 µM | CC(C)NC(=O)c1cc(-c2ccc(NC(=O)C(O)c3cc(F)cc(F)c3)cc2F)cnc1N (stereo not drawn) [Example 32, 2-amino-5-(4-(2-(3,5-difluorophenyl)-2-hydroxyacetamido)-2-fluorophenyl)-N-isopropylnicotinamide]
21 | 6.60 to 7.00 | 0.251 to 0.5 µM | CC(C)NC(=O)c1cc(-c2ccc(NC(=O)C(O)c3cc(F)cc(F)c3)cc2C(F)(F)F)cnc1N (stereo not drawn) [Example 37, 2-amino-5-(4-(2-(3,5-difluorophenyl)-2-hydroxyacetamido)-2-(trifluoromethyl)phenyl)-N-isopropylnicotinamide]
22 | 7.60 to 9.00 | 3 to 4 µM | Cc1cc(NC(=O)C(O)c2cc(F)cc(F)c2)ccc1-c1cnc(N)c(C(=O)NC2CNC2)c1 (stereo not drawn) [Example 44, 2-amino-N-(azetidin-3-yl)-5-(4-(2-(3,5-difluorophenyl)-2-hydroxyacetamido)-2-methylphenyl) nicotinamide]
23 | 7.60 to 9.00 | 0.501 to 1 µM | Cc1cc(NC(=O)C(O)c2cc(F)cc(F)c2)ccc1-c1cnc(N)c(C(=O)NC2CN(C)C2)c1 (stereo not drawn) [Example 46, 2-amino-5-(4-(2-(3,5-difluorophenyl)-2-hydroxyacetamido)-2-methylphenyl)-N-(1-methylazetidin-3-yl)nicotinamide]
24 | 7.60 to 9.00 | 1 to 2 µM | Cc1cc(NC(=O)C(O)c2cc(F)cc(F)c2)ccc1-c1cnc(N)c(C(=O)NC2CN(C)C2)c1 (stereo not drawn) [Example 47, 2-amino-5-(4-(2-(3,5-difluorophenyl)-2-hydroxyacetamido)-2-methylphenyl)-N-(1-methylazetidin-3-yl)nicotinamide]
25 | 6.60 to 7.00 | 2 to 3 µM | Cc1cc(NC(=O)C(O)c2cc(F)cc(F)c2)ccc1-c1cnc(N)c(C(=O)NCCO)c1 (stereo not drawn) [Example 57, 2-amino-5-(4-(2-(3,5-difluorophenyl)-2-hydroxyacetamido)-2-methylphenyl)-N-(2-hydroxyethyl) nicotinamide]
26 | 6.60 to 7.00 | 1 to 2 µM | Cc1cccc(C(O)C(=O)Nc2ccc(-c3cnc(N)c(C(=O)NC(C)C)c3)c(C)c2)c1 (stereo not drawn) [Example 66, 2-amino-5-(4-(2-hydroxy-2-(m-tolyl)acetamido)-2-methylphenyl)-N-isopropylnicotinamide]
27 | 6.60 to 7.00 | 0.501 to 1 µM | Cc1cc(NC(=O)C(O)c2cccc(Cl)c2)ccc1-c1cnc(N)c(C(=O)NC(C)C)c1 (stereo not drawn) [Example 68, 2-amino-5-(4-(2-(3-chlorophenyl)-2-hydroxyacetamido)-2-methylphenyl)-N-isopropylnicotinamide]
28 | 6.30 to 6.60 | 1 to 2 µM | Cc1cc(NC(=O)C(O)c2cccc3c2OCC3)ccc1-c1cnc(N)c(C(=O)NC(C)C)c1 (stereo not drawn) [Example 74, 2-amino-5-(4-(2-(2,3-dihydrobenzofuran-7-yl)-2-hydroxyacetamido)-2-methylphenyl)-N-isopropylnicotinamide]
29 | 6.30 to 6.60 | 3 to 4 µM | Cc1cc(NC(=O)C(O)c2cccc3cnn(C)c23)ccc1-c1cnc(N)c(C(=O)NC(C)C)c1 (stereo not drawn) [Example 76, 2-amino-5-(4-(2-hydroxy-2-(1-methyl-1H-indazol-7-yl)acetamido)-2-methylphenyl)-N-isopropylnicotinamide]
30 | 5.70 to 6.00 | > 5 µM | Cc1nc(C(O)C(=O)Nc2ccc(-c3cnc(N)c(C(=O)NC(C)C)c3)c(C)c2)cs1 (stereo not drawn) [Example 78, 2-amino-5-(4-(2-hydroxy-2-(2-methylthiazol-4-yl)acetamido)-2-methylphenyl)-N-isopropylnicotinamide]
